Several values for one entry are separate records, joined by “and”; a condition that tells them apart may be missing. Equal entries are not always repeated.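 A five-concentration, 48-hour dose response in 96-well plates underlies each endpoint, interpolated linearly between surrounding concentrations. The concentration for 50% growth inhibition is given as GI50. Definition used: TGI = concentration required for complete inhibition of growth.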 Where only a bound is given, the exact number is not on record here.

Holding throughout (test): NCI tumour cell line growth inhibition, 48 h
Test [1] concerns MALME-3M melanoma.
In test [2] the test system is EKVX NSCLC.
Test [3] concerns SK-OV-3 ovarian.
Test [4] concerns TK-10 renal.
The subject of test [5] is SF-295 CNS.
Test [6] relates to MDA-MB-231 breast.
Test [7] has as its system ACHN renal.
Test [8] deals with SR leukemia.
Test [9] has as its system CCRF-CEM leukemia.
Test [10] has as its system T-47D breast.

On to `C[C@@H]1CCc2ncc(F)cc2[C@H]2CCCN2c2ccn3ncc(c3n2)C(=O)N1`, for which the GI50 in test [1] is over 100 µM; in test [2], 48.8 µM; in test [3], 91.7 µM; in test [4] it was 81.7 µM; in [5], 60.6 µM; in test [6], 29.9 µM. Further, the GI50 in test [7] is 65.9 µM; in test [8], 4.38 µM; in [9] it was over 100 µM; in [10] it was 86.1 µM. Also, the TGI in [1], in test [2], in [3], in test [4], in test [5] and in test [6] was over 100 µM throughout. Further, the TGI in test [7], in test [8], in test [9] and in test [10] was over 100 µM throughout.
Regarding `O=NNc1ccc(S(=O)(=O)c2ccc3ccccc3c2)cn1`, the TGI in test [1], in test [2], in [3], in test [4], in test [5] and in test [6] was over 100 µM in each case. Besides, the TGI in test [7], in test [8], in test [9] and in test [10] was over 100 µM throughout.
Turning to `COc1cc2c3cc1Oc1c(OC)c(OC)cc4c1C(Cc1ccc(O)c(c1)Oc1ccc(cc1)CC3N(C)CC2)N(C)CC4` (centres undefined), the GI50 in [1] is 8.17 µM; in [3], 36.9 µM; in test [4], 20.8 µM; in test [5], 13.3 µM; in [6] it was 5.21 µM; in test [7], 12.7 µM. Moreover, the GI50 in test [8] was 3.32 µM; in test [10], 15 µM. The TGI in test [1] is > 100 µM and 23.8 µM; in test [2] it was over 100 µM; in [3], 91.2 µM and > 100 µM; in test [4], > 100 µM and 39.3 µM; in test [5], 59.1 µM and 29.8 µM; in [6], > 100 µM and 21.9 µM. Besides, the TGI is 34.9 µM and 44.1 µM in [7]; 21 µM in [8]; 81.8 µM and 57.6 µM in test [9]; 75.7 µM and 36.2 µM in [10].
`COCC(C(=O)OC1C/C=C/C=C/C(=O)OC(C(C)C(O)C(C)CCC(OC(=O)C(C)N(C)C)C(C)C(OC(C)=O)C(C)/C=C/N(C)C=O)C/C=C/C(OC)CC(C)C/C=C(\C)C(OC)CCC(C)C(O)C1C)N(C)C` (centres undefined): the GI50 in test [1] was under 0.0001 µM; in test [2] it was under 0.0001 µM; in test [3], under 0.0001 µM; in test [4], 0.0158 µM; in test [5] it was under 0.0001 µM; in test [6], under 0.0001 µM. The GI50 in [7] is 0.000173 µM; in test [8], under 0.0001 µM; in test [9], under 0.0001 µM; in test [10] it was 0.0479 µM. Also, the TGI in [1] was 0.0225 µM; in test [2], 0.0275 µM; in test [3], 0.0164 µM; in test [4], 0.0877 µM; in [5], under 0.0001 µM; in test [6], 0.00136 µM. Further, the TGI was over 0.393 µM in test [7], 0.00341 µM in test [8], 0.0139 µM in test [9] and over 1 µM in test [10].
Consider `NC1=NCN(C2OC(CO)C(O)C2O)C(=O)N1` (centres undefined), for which the TGI in test [1] turned out to be 128 µM; in [2], 1870 µM; in test [3], 943 µM; in test [4], 1730 µM; in test [5] it was 1460 µM; in test [6] it was 568 µM. For the same compound, the TGI was 106 µM in test [7], 278 µM in test [8], 541 µM in test [9] and 759 µM in test [10].
As for `COc1cc2cc(Oc3cccc(NC(=O)Nc4cc(C(F)(F)F)cc(C(F)(F)F)c4)c3)c(C)nc2cc1OC`, the GI50 is 1.1 µM in test [1]; 1 µM in [2]; 1.71 µM in test [3]; 2.32 µM in [4]; 0.481 µM in [5]; 1.08 µM in test [6]. Also, the GI50 in test [7] is 0.39 µM; in [8], 1.62 µM; in [9], 0.641 µM; in [10] it was 1.48 µM. Besides, the TGI stood at 3.46 µM in test [1]; 2.98 µM in test [2]; 3.47 µM in [3]; 9.18 µM in test [4]; 1.94 µM in test [5]; 2.49 µM in test [6]. The TGI in test [7] amounted to 1.69 µM; in test [8], 5.97 µM; in [9], 3.47 µM; in test [10], 5.67 µM.
As for `CCOC(=O)c1c(NC(=O)c2ccc(Cl)cc2)sc2c(CN(C)C)c(O)ccc12`, the GI50 in test [1] was 1.85 µM; in test [2], 10.1 µM; in test [3] it was 10.9 µM; in [4], 14.5 µM; in test [5] it was 3.79 µM; in test [6], 6.53 µM. Besides, the GI50 in [7] is 4.28 µM; in [8], 2.19 µM; in test [9], 13.3 µM; in test [10], 4.88 µM. For the same compound, the TGI in [1] was 3.86 µM; in test [2], 31.8 µM; in [3] it was 33.3 µM; in test [4] it was 34.5 µM; in [5] it was 16.4 µM; in [6], 34.5 µM. Besides, the TGI is 18.3 µM in [7], 4.82 µM in test [8], over 100 µM in test [9] and over 100 µM in test [10].
Consider `C=C1C[C@@H]2O[C@H]3[C@H]4[C@@H](CC[C@@](C)(OC(=O)CCC)[C@H]42)[C@@H](C)C(=O)O[C@@]3(C)CC[C@H]1OO`, for which the GI50 is 18 µM in test [1]; 27.7 µM in [2]; over 100 µM in test [3]; 26.1 µM in [4]; 17.8 µM in test [5]; 17.9 µM in [6]. The GI50 in [7] is 17.3 µM; in test [8], 5.48 µM; in [9] it was 4.81 µM; in test [10], 21.4 µM. In addition, the TGI in test [1] was 37.1 µM; in test [2] it was 70.8 µM; in [3], over 100 µM; in test [4] it was 49.4 µM; in [5] it was 36.1 µM; in [6] it was 33.2 µM. The TGI in [7] is 31.1 µM; in test [8], 18.4 µM; in test [9], 14.8 µM; in [10], 40 µM.
Take `COc1ccc2c(c1)C(=O)c1c-2c(OCCN(C)C)nc2cc(OC)c(OC)cc12`: the GI50 is 12.1 µM in [1]; 22.6 µM in test [2]; 18.9 µM in [3]; 13.9 µM in test [4]; 0.0293 µM in test [5]; 10.1 µM in test [6]. Besides, the GI50 in test [7] was 5.21 µM; in [8], 1.22 µM; in test [9], 0.0714 µM; in [10], over 100 µM. The TGI was 28.3 µM in test [1]; over 100 µM in [2]; over 100 µM in [3]; 27.5 µM in test [4]; 0.21 µM in [5]; 22.1 µM in test [6]. Besides, the TGI in test [7] was 19.3 µM; in test [8], 14.4 µM; in [9], 3.91 µM; in [10], over 100 µM.
As for `O=c1cccc(Cl)[nH]1`, the TGI in test [1], in test [2], in [3], in test [4], in test [5] and in test [6] was over 100 µM throughout. Besides, the TGI in test [7], in [8], in test [9] and in [10] was over 100 µM each time.
As for `CNC(=O)OCc1nc(SC)n(C)c1COC(=O)NC`, the TGI in [1] is 253 µM; in test [2] it was 492 µM; in test [3] it was 525 µM; in test [4] it was 702 µM; in test [5] it was 551 µM; in test [6], 430 µM. Further, the TGI was 361 µM in [7], 473 µM in test [8], 494 µM in test [9] and 554 µM in test [10].
`Cc1ccc(OC(=O)N2C/C(=C\c3ccccc3)C(=O)/C(=C/c3ccccc3)C2)cc1`: the TGI in [1] was over 100 µM; in test [2] it was over 100 µM; in test [3] it was 86.2 µM; in [4], over 87.9 µM; in test [5], 47.6 µM; in [6], 70.2 µM. Also, the TGI is 80.9 µM in test [7], 13.2 µM in test [8], 16.3 µM in test [9] and over 100 µM in test [10].
Take `CCCCCC[C@H]1C(=O)O[C@H](C)[C@H](NC(=O)c2cccc(NC=O)c2OC)C(=O)O[C@@H](C)[C@@H]1OC(=O)CCC` (tested in a mixture with another compound): the GI50 was 15.3 µM in test [1]; 6 µM in test [2]; 24.2 µM in test [3]; 13.3 µM in test [4]; 5.99 µM in test [5]; 13.5 µM in [6]. Moreover, the GI50 in [7] is 10.1 µM; in test [8] it was 3.64 µM; in [9], 3.81 µM; in test [10], 11.2 µM. The TGI in test [1] worked out at 41.2 µM; in test [2], 24.2 µM; in test [3], 66.1 µM; in [4] it was 29.6 µM; in test [5], 20.8 µM; in test [6] it was 34.2 µM. Moreover, the TGI in [7] came to 23.1 µM; in test [8], 18.8 µM; in test [9], 27.2 µM; in test [10], 35.5 µM.
For `CC1OC(OC2C(O)C(O)C(O)C(O)C2O)C(N)CC1N=C(N)C(=O)O` (centres undefined), the TGI in test [1], in test [2], in test [3], in test [4], in test [5] and in [6] was over 100 µM throughout. Moreover, the TGI in test [7], in test [8], in test [9] and in [10] was over 100 µM each time.
On to `CCOC(=O)/C(=C\c1ccc2ccccc2c1)P(=O)(OCC)OCC`, for which the GI50 in test [1] is 2.52 µM; in test [2], 4.28 µM; in test [3], 8.84 µM; in [4], 2.85 µM; in [5], 4.76 µM; in [6] it was 3.57 µM. Moreover, the GI50 is 2.31 µM in [7], 1.69 µM in test [8], 1.89 µM in [9] and 2.55 µM in test [10]. The TGI in test [1] came out at 7.95 µM; in [2] it was 16 µM; in test [3] it was 20.9 µM; in test [4] it was 8.97 µM; in [5] it was 16.2 µM; in test [6], 13.4 µM. The TGI is 6.3 µM in test [7], 8.19 µM in test [8], 6.51 µM in test [9] and 9.09 µM in test [10].
As to `CS(=O)(=O)Nc1cc(-c2ccc3ncnc(Nc4cccc(Cl)c4)c3c2)cnc1Cl`, the GI50 was 0.0985 µM in [1]; 0.416 µM in test [2]; 0.262 µM in test [3]; 0.335 µM in [5]; 1.05 µM in [6]; 0.474 µM in test [7]. Also, the GI50 in test [8] was 0.371 µM; in test [9], 0.463 µM; in test [10], 0.0237 µM. Besides, the TGI came out at 0.82 µM in test [1]; 3.59 µM in [2]; 1.58 µM in [3]; 2.2 µM in test [5]; 5.56 µM in test [6]; 46.6 µM in [7]. In addition, the TGI was found to be 4.95 µM in test [8], 20.7 µM in [9] and 0.635 µM in test [10].
Regarding `CC(=O)OCC1OC(n2c3c(cc(C#N)c2=S)CCCC3)C(OC(C)=O)C(OC(C)=O)C1OC(C)=O` (centres undefined), the TGI in [1] was over 100 µM; in [2], over 100 µM; in test [4], over 100 µM; in [5], > 100 µM and 48.4 µM; in test [6], over 100 µM; in test [7], over 100 µM. The TGI in test [8], in test [9] and in [10] was over 100 µM each time. Moreover, the GI50 in test [5] was > 100 µM and 19.7 µM; in test [8], 32.4 µM and > 100 µM; in test [9] it was 43.2 µM and > 100 µM; in test [10], over 100 µM.

(Values after PubChem BioAssay (NCI).)
